Results reported in patent US20020137929A1, “1 - (3-heterocyclylphenyl) isothiourea, -isourea, -guanidine and -amidine herbicidal agents” (Intellectual Property Department, BASF Aktiengesellschaft, priority 1998, published 2002).

Key:
AMBEL (Ragweed, Common) = experiment: Preemergence herbicidal evaluation; assay type: in vivo, Ambrosia artemisifolia; conditions: rated 4-5 weeks after treatment
Method in brief: (§1)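 Steps: mix seeds into potting soil; plant atop ~1 inch soil; spray compound in aqueous acetone (~0.0156-0.500 kg/ha equivalent); maintain in greenhouse with watering; rate visually 0-9 versus control at 4-5 weeks.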

[1] = tested on: ECHORC (Watergrass (Calif.)); experiment: Postemergence weed control under flooded paddy conditions; assay type: in vivo, Echinochloa oryzoides; conditions: postemergence weeds, 3-4 weeks after treatment
Method in brief: (§2)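 Herbicidal effect is judged by eye on a 0–9 scale versus control, 3–4 weeks after dosing. Dosing is into flood water kept 1.5–3 cm over the soil, at about 0.0313–0.500 kg/ha in aqueous/acetone 50/50 v/v, on 3–5 cm weeds and 1.5–2.5-leaf rice seedlings.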

ABUTH (Velvetleaf) [2] = experiment: Preemergence herbicidal evaluation; assay type: in vivo, Abutilon theophrasti; conditions: rated 4-5 weeks after treatment
Method in brief: as §1

[3] = tested on: ECHORC (Watergrass (Calif.)); experiment: Preemergence weed control under flooded paddy conditions; assay type: in vivo, Echinochloa oryzoides; conditions: rated 3-4 weeks after treatment
Method in brief: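 Visual injury scored 0-9 against control three to four weeks post-treatment, greenhouse-grown. Application: acetone/water (50/50) solutions dosed directly into flood water (1.5-3 cm over silt loam, planted top 0.5 cm), roughly 0.0313 to 0.500 kg/ha active ingredient.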

ZEAMX (Corn, Field) = experiment: Postemergence herbicidal evaluation; assay type: in vivo, Zea mays
Method in brief: (§3)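 Rate range approx. 0.0156–0.500 kg/ha. Foliar application at 40 psi to ~2-week seedlings; surfactant 0.5% TWEEN 20 in 50/50 acetone/water. Evaluation 4–5 wk post-treatment by 0–9 visual injury score, means of replicate tests.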

SETVI (Foxtail, Green) = experiment: Postemergence herbicidal evaluation; assay type: in vivo, Setaria viridis
Method in brief: as §3

CASOB (Sicklepod) = experiment: Preemergence herbicidal evaluation; assay type: in vivo, Cassia obtusifolia; conditions: rated 4-5 weeks after treatment
Method in brief: as §1

ABUTH (Velvetleaf) [4] = experiment: Postemergence herbicidal evaluation; assay type: in vivo, Abutilon theophrasti
Method in brief: as §3

CYPIR (Rice Flatsedge) = experiment: Postemergence weed control under flooded paddy conditions; assay type: in vivo, Cyperus iria; conditions: postemergence weeds, 3-4 weeks after treatment
Method in brief: as §2

[5] = tested on: IPOHE (Morningglory, Ivyleaf); experiment: Preemergence herbicidal evaluation; assay type: in vivo, Ipomoea hederacea; conditions: rated 4-5 weeks after treatment
Method in brief: as §1

[6] = tested on: GLXMAW (Soybean, Williams); experiment: Postemergence herbicidal evaluation; assay type: in vivo, Glycine max, (L.) Merr. cv Williams
Method in brief: as §3

CYPSE (Flatsedge) = experiment: Preemergence weed control under flooded paddy conditions; assay type: in vivo, Cyperus serotinus; conditions: rated 3-4 weeks after treatment
Method in brief: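 Greenhouse paddy assay. Acetone/water (50/50 v/v) solutions dosed into flood water, equivalent to about 0.0313 to 0.500 kg/ha active ingredient, over seeds planted 0.5 cm deep in silt loam. Score: 0-9 visual, based on stand, vigor, malformation, size and chlorosis, 3 to 4 weeks after treatment.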

ECHCG (Barnyardgrass) = experiment: Preemergence herbicidal evaluation; assay type: in vivo, Echinochloa crus-galli; conditions: rated 4-5 weeks after treatment
Method in brief: as §1

[7] = tested on: IPOHE (Morningglory, Ivyleaf); experiment: Postemergence herbicidal evaluation; assay type: in vivo, Ipomoea hederacea
Method in brief: as §3

CCOC(=O)CCN1C(=O)CSC1=Nc1cc(-n2c(=O)cc(C(F)(F)F)n(C)c2=O)c(Cl)cc1Cl [Compound 32, Ethyl 2-{{2,4-dichloro-5-[3,6-dihydro-3-methyl-2,6-dioxo-4-(trifluoromethyl)-1(2H)-pyrimidinyl]-phenyl}imino}-4-oxo-3-thiazolidinepropionate]
5.5: Preemergence herbicidal rating AMBEL (AMBEL (Ragweed, Common); rate 0.2500 kg/ha) | Postemergence herbicidal rating GLXMAW ([6]; Rate 0.0313 kg/ha)
1.5: Preemergence herbicidal rating ABUTH (ABUTH (Velvetleaf) [2]; rate 0.0625 kg/ha)
2.5: Preemergence herbicidal rating ABUTH (ABUTH (Velvetleaf) [2]; rate 0.0313 kg/ha)
7.0: Postemergence herbicidal rating ZEAMX (ZEAMX (Corn, Field); Rate 0.0625 kg/ha) | Postemergence herbicidal rating ZEAMX (ZEAMX (Corn, Field); Rate 0.1250 kg/ha) | Postemergence herbicidal rating SETVI (SETVI (Foxtail, Green); Rate 0.1250 kg/ha)
6.0: Herbicidal rating ECHORC ([1]; rate 0.2500 kg/ha) | Herbicidal rating ECHORC ([3]; 0.2500 kg/ha) | Postemergence herbicidal rating ZEAMX (ZEAMX (Corn, Field); Rate 0.0313 kg/ha) | Postemergence herbicidal rating GLXMAW ([6]; Rate 0.0625 kg/ha) | Postemergence herbicidal rating GLXMAW ([6]; Rate 0.1250 kg/ha)
3.0: Herbicidal rating ECHORC ([1]; rate 0.1250 kg/ha) | Herbicidal rating ECHORC ([3]; 0.1250 kg/ha)
5.0: Postemergence herbicidal rating ABUTH (ABUTH (Velvetleaf) [4]; Rate 0.0158 kg/ha)
1.0: Preemergence herbicidal rating IPOHE ([5]; rate 0.5000 kg/ha) | Preemergence herbicidal rating ECHCG (ECHCG (Barnyardgrass); rate 0.5000 kg/ha)
4.0: Postemergence herbicidal rating ZEAMX (ZEAMX (Corn, Field); Rate 0.0158 kg/ha)
0.0: Preemergence herbicidal rating AMBEL (AMBEL (Ragweed, Common); rate 0.0156 kg/ha) | Preemergence herbicidal rating ABUTH (ABUTH (Velvetleaf) [2]; rate 0.0156 kg/ha) | Postemergence herbicidal rating SETVI (SETVI (Foxtail, Green); Rate 0.0158 kg/ha) | Postemergence herbicidal rating SETVI (SETVI (Foxtail, Green); Rate 0.0313 kg/ha) | Postemergence herbicidal rating SETVI (SETVI (Foxtail, Green); Rate 0.0625 kg/ha) | Preemergence herbicidal rating CASOB (CASOB (Sicklepod); rate 0.0313 kg/ha) | Preemergence herbicidal rating CASOB (CASOB (Sicklepod); rate 0.0625 kg/ha) | Preemergence herbicidal rating CASOB (CASOB (Sicklepod); rate 0.1250 kg/ha) | Preemergence herbicidal rating CASOB (CASOB (Sicklepod); rate 0.2500 kg/ha) | Preemergence herbicidal rating CASOB (CASOB (Sicklepod); rate 0.5000 kg/ha) | Herbicidal rating CYPIR (CYPIR (Rice Flatsedge); rate 0.1250 kg/ha) | Herbicidal rating CYPIR (CYPIR (Rice Flatsedge); rate 0.2500 kg/ha) | Preemergence herbicidal rating IPOHE ([5]; rate 0.0156 kg/ha) | Preemergence herbicidal rating IPOHE ([5]; rate 0.0313 kg/ha) | Preemergence herbicidal rating IPOHE ([5]; rate 0.2500 kg/ha) | Herbicidal rating CYPSE (CYPSE (Flatsedge); 0.1250 kg/ha) | Herbicidal rating CYPSE (CYPSE (Flatsedge); 0.2500 kg/ha) | Preemergence herbicidal rating ECHCG (ECHCG (Barnyardgrass); rate 0.0156 kg/ha) | Preemergence herbicidal rating ECHCG (ECHCG (Barnyardgrass); rate 0.0313 kg/ha) | Preemergence herbicidal rating ECHCG (ECHCG (Barnyardgrass); rate 0.0625 kg/ha) | Preemergence herbicidal rating ECHCG (ECHCG (Barnyardgrass); rate 0.2500 kg/ha)
9.0: Preemergence herbicidal rating AMBEL (AMBEL (Ragweed, Common); rate 0.5000 kg/ha) | Preemergence herbicidal rating ABUTH (ABUTH (Velvetleaf) [2]; rate 0.1250 kg/ha) | Preemergence herbicidal rating ABUTH (ABUTH (Velvetleaf) [2]; rate 0.2500 kg/ha) | Preemergence herbicidal rating ABUTH (ABUTH (Velvetleaf) [2]; rate 0.5000 kg/ha) | Postemergence herbicidal rating ABUTH (ABUTH (Velvetleaf) [4]; Rate 0.0313 kg/ha) | Postemergence herbicidal rating ABUTH (ABUTH (Velvetleaf) [4]; Rate 0.0625 kg/ha) | Postemergence herbicidal rating ABUTH (ABUTH (Velvetleaf) [4]; Rate 0.1250 kg/ha) | Postemergence herbicidal rating IPOHE ([7]; Rate 0.0158 kg/ha) | Postemergence herbicidal rating IPOHE ([7]; Rate 0.0313 kg/ha) | Postemergence herbicidal rating IPOHE ([7]; Rate 0.0625 kg/ha) | Postemergence herbicidal rating IPOHE ([7]; Rate 0.1250 kg/ha)
0.5: Preemergence herbicidal rating AMBEL (AMBEL (Ragweed, Common); rate 0.0313 kg/ha) | Preemergence herbicidal rating AMBEL (AMBEL (Ragweed, Common); rate 0.0625 kg/ha) | Preemergence herbicidal rating AMBEL (AMBEL (Ragweed, Common); rate 0.1250 kg/ha) | Preemergence herbicidal rating CASOB (CASOB (Sicklepod); rate 0.0156 kg/ha) | Preemergence herbicidal rating IPOHE ([5]; rate 0.0625 kg/ha) | Preemergence herbicidal rating IPOHE ([5]; rate 0.1250 kg/ha) | Preemergence herbicidal rating ECHCG (ECHCG (Barnyardgrass); rate 0.1250 kg/ha)
3.5: Postemergence herbicidal rating GLXMAW ([6]; Rate 0.0158 kg/ha)
